Laboratory results published in patent US20240059703A1 (AMGEN INC., priority 2021, published 2024).
pIC50: −log10 of the molar value.

Legend:
[1] = tested on: A549 (human lung carcinoma) cells; experiment: Cell Viability Assay (CellTiter-Glo), A549; format: cell-based; settings: Homo sapiens, A549, 72 h
How it was run: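 Seeding at 1.67E+04 cells/mL is followed by overnight attachment at 37° C., 5% CO2. Serially diluted compound is added for 72 h. Viability is read by CellTiter-Glo luminescence, scaled to DMSO and fitted (4-parameter logistic) to give IC50.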

[2] = tested on: MIA PaCa-2 (human pancreatic carcinoma) cells; experiment: Cell Viability Assay (CellTiter-Glo), MIA PaCa-2; format: cell-based; settings: Homo sapiens, MIA PaCa-2, 72 h
Experimental: Serially-diluted compound or DMSO was added to the cells, and plates were incubated at 37° C., 5% CO2 for 72 h. Cell viability was measured using a CellTiter-Glo® Luminescent Cell Viability Assay kit (Promega) according to the manufacturer's protocol. The luminescence signal of treated samples was normalized to DMSO control, and data were analyzed using a 4-parameter logistic model to calculate IC50 values.

KRAS G12C = KRAS G12C (Homo sapiens (Human), UniProt P01116, C118A/G12C); experiment: 2 h coupled exchange assay; format: biochemical; settings: Avg 2 h Coupled exchange IC50, 2 h compound pre-incubation
Experimental: The term “2 h coupled exchange assay” or “20 h coupled exchange assay” as used herein refers to the assay described in the Section entitled “BIOLOGICAL EVALUATION.”

[3] = SOS-mediated nucleotide exchange

Sequence of KRAS G12C (P01116 other isoform, or with tags, fused parts or gaps G12C/C118A): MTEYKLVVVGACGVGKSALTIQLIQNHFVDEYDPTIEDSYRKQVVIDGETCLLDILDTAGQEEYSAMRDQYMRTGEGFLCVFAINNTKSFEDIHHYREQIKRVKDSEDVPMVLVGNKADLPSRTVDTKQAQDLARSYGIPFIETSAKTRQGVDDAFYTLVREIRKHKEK

Structure (SMILES)	pIC50 [1]	pIC50 [2]	pIC50 (KRAS G12C; [3])	pIC50 (KRAS G12C)
C=CC(=O)N1CC2(CCN(c3nc4c(c(-c5c(C)ccc6cnn(C)c56)c3C#N)CCC3CC43)C2)C1 [Example 13-116, (6aR,7aS)-4-(1,6-dimethyl-1H-indazol-7-yl)-2-(2-(2-propenoyl)-2,6-diazaspiro[3.4]octan-6-yl)-6,6a,7,7a-tetrahydro-5H-cyclopropa[h]quinoline-3-carbonitrile|(6aS,7aR)-4-(1,6-dimethyl-1H-indazol-7-yl)-2-(2-(2-propenoyl)-2,6-diazaspiro[3.4]octan-6-yl)-6,6a,7,7a-tetrahydro-5H-cyclopropa[h]quinoline-3-carbonitrile]	< 5.30	6.11	7.52	
C=CC(=O)N1CC2(CCN(c3nc4c(c(-c5c(C)ccc6cnn(C)c56)c3C#N)CCC(C)(C)C4)C2)C1 [Example 13-143, 4-(1,6-dimethyl-1H-indazol-7-yl)-7,7-dimethyl-2-(2-(2-propenoyl)-2,6-diazaspiro[3.4]octan-6-yl)-5,6,7,8-tetrahydro-3-quinolinecarbonitrile]	< 5.30	6.22	7.48	
C=CC(=O)N1CC2(CCN(c3nc4c(c(-c5c(C)cc(F)c6[nH]ncc56)c3C#N)CCC(C)(C)C4)C2)C1 [Example 13-146, 4-(7-fluoro-5-methyl-1H-indazol-4-yl)-7,7-dimethyl-2-(2-(2-propenoyl)-2,6-diazaspiro[3.4]octan-6-yl)-5,6,7,8-tetrahydro-3-quinolinecarbonitrile]	< 5.30	7.15	7.54	
C=CC(=O)N1CC2(CCN(c3nc4c(c(-c5c(C)cc(F)c6[nH]ncc56)c3C#N)COC(C)(C)C4)C2)C1 [Example 13-147, 4-(7-fluoro-5-methyl-1H-indazol-4-yl)-7,7-dimethyl-2-(2-(2-propenoyl)-2,6-diazaspiro[3.4]octan-6-yl)-7,8-dihydro-5H-pyrano[4,3-b]pyridine-3-carbonitrile]	< 5.30	6.75	7.01	
C=CC(=O)N1CC2(CCN(c3nc4c(c(-c5c(Cl)ccc6[nH]ncc56)c3C#N)COC(C)(C)C4)C2)C1 [Example 13-148, 4-(5-chloro-1H-indazol-4-yl)-7,7-dimethyl-2-(2-(2-propenoyl)-2,6-diazaspiro[3.4]octan-6-yl)-7,8-dihydro-5H-pyrano[4,3-b]pyridine-3-carbonitrile]	< 5.30	6.99	7.59	
C=CC(=O)N1CC2(CCN(c3nc4c(c(-c5cc(O)cc(C)c5Cl)c3C#N)COC(C)(C)C4)C2)C1 [Example 13-153, 4-(2-chloro-5-hydroxy-3-methylphenyl)-7,7-dimethyl-2-(2-(2-propenoyl)-2,6-diazaspiro[3.4]octan-6-yl)-7,8-dihydro-5H-pyrano[4,3-b]pyridine-3-carbonitrile]	< 5.30	7.24	7.19	
C=CC(=O)N1CC2(CCN(c3nc4c(c(-c5c(N)c(Cl)cc(Cl)c5F)c3C#N)COC(C)(C)C4)C2)C1 [Example 13-154, 4-(2-amino-3,5-dichloro-6-fluorophenyl)-7,7-dimethyl-2-(2-(2-propenoyl)-2,6-diazaspiro[3.4]octan-6-yl)-7,8-dihydro-5H-pyrano[4,3-b]pyridine-3-carbonitrile]	< 5.30	6.11	7.09	
C=CC(=O)N1CC2(CCN(c3nc4ccccc4c(-c4c(C)c(F)cc5[nH]ncc45)c3C#N)C2)C1 [Example 14-2, 4-(6-fluoro-5-methyl-1H-indazol-4-yl)-2-(2-(2-propenoyl)-2,6-diazaspiro[3.4]octan-6-yl)-3-quinolinecarbonitrile]	< 5.30	6.34	7.06	
C=CC(=O)N1CC2(CCN(c3nc4ccccc4c(-c4c(C)c(Cl)cc5[nH]ncc45)c3C#N)C2)C1 [Example 14-18, 4-(6-chloro-5-methyl-1H-indazol-4-yl)-2-(2-(2-propenoyl)-2,6-diazaspiro[3.4]octan-6-yl)-3-quinolinecarbonitrile]	< 5.30	6.49		7.37
C=CC(=O)N1CC2(CCN(c3nc4cc(C5CC5)ccc4c(-c4c(C)ccc5[nH]ncc45)c3C#N)C2)C1 [Example 14-19, 7-cyclopropyl-4-(5-methyl-1H-indazol-4-yl)-2-(2-(2-propenoyl)-2,6-diazaspiro[3.4]octan-6-yl)-3-quinolinecarbonitrile]	< 5.30	5.77		6.89
C=CC(=O)N1CC2(C1)CN(c1nc3cc(OC)ccc3c(-c3c(C)ccc4[nH]ncc34)c1C#N)CC2(F)F [Example 14-20, 2-(8,8-difluoro-2-(2-propenoyl)-2,6-diazaspiro[3.4]octan-6-yl)-7-methoxy-4-(5-methyl-1H-indazol-4-yl)-3-quinolinecarbonitrile]	< 5.30	5.59		7.51
C=CC(=O)N1CC2(CCN(c3nc4cc(OC)ccc4c(-c4c(C)ccc5[nH]ncc45)c3C#N)C2C)C1 [Example 14-21, 7-methoxy-4-(5-methyl-1H-indazol-4-yl)-2-((5R)-5-methyl-2-(2-propenoyl)-2,6-diazaspiro[3.4]octan-6-yl)-3-quinolinecarbonitrile|7-methoxy-4-(5-methyl-1H-indazol-4-yl)-2-((5S)-5-methyl-2-(2-propenoyl)-2,6-diazaspiro[3.4]octan-6-yl)-3-quinolinecarbonitrile]	< 5.30	6.35		6.95
C=CC(=O)N1CC2(CCN(c3nc4c(c(-c5c(C)ccc6[nH]ncc56)c3C)COC(C)(C)C4)C2)C1 [Example 14-23, 1-(6-(3,7,7-trimethyl-4-(5-methyl-1H-indazol-4-yl)-7,8-dihydro-5H-pyrano[4,3-b]pyridin-2-yl)-2,6-diazaspiro[3.4]octan-2-yl)-2-propen-1-one]	< 5.30	7.74		6.99
C=CC(=O)N1CC2(CCN(c3nc4c(c(-c5cccc6cn[nH]c56)c3C#N)C[C@H]3C[C@@H]4C3(C)C)C2)C1 [Example 14-25, (1R,9R)-6-(1H-indazol-7-yl)-10,10-dimethyl-4-(2-(2-propenoyl)-2,6-diazaspiro[3.4]octan-6-yl)-3-azatricyclo[7.1.1.0^2,7]undeca-2,4,6-triene-5-carbonitrile]	< 5.30	6.17		6.96

Next, values leading:

pIC50 [1]	pIC50 [2]	pIC50 (KRAS G12C; [3])	pIC50 (KRAS G12C)	Structure (SMILES)
< 5.30	< 5.30	6.93		C=CC(=O)N1CC2(CCN(c3nc4c(c(-c5cc(O)ccc5C)c3C#N)COC(C)(C)C4)C2)C1 [Example 13-112, 4-(5-hydroxy-2-methylphenyl)-7,7-dimethyl-2-(2-(2-propenoyl)-2,6-diazaspiro[3.4]octan-6-yl)-7,8-dihydro-5H-pyrano[4,3-b]pyridine-3-carbonitrile]
< 5.30	< 5.30	7.15		C=CC(=O)N1CC2(CCN(c3nc4c(c(-c5cc(O)ccc5C)c3C#N)C[C@H]3C[C@@H]4C3)C2)C1 [Example 13-113, (1S,9S)-6-(5-hydroxy-2-methylphenyl)-4-(2-(2-propenoyl)-2,6-diazaspiro[3.4]octan-6-yl)-3-azatricyclo[7.1.1.0^2,7]undeca-2,4,6-triene-5-carbonitrile]
5.42	6.76	7.39		C=CC(=O)N1CC2(CCN(c3nc4c(c(-c5c(Cl)ccc6[nH]ncc56)c3C#N)CCC(C)(C)C4)C2)C1 [Example 13-144, 4-(5-chloro-1H-indazol-4-yl)-7,7-dimethyl-2-(2-(2-propenoyl)-2,6-diazaspiro[3.4]octan-6-yl)-5,6,7,8-tetrahydro-3-quinolinecarbonitrile]
4.95	6.21	6.56		C=CC(=O)N1CC2(CCN(c3nc4c(c(-c5c(F)ccc6[nH]ncc56)c3C#N)COC(C)(C)C4)C2)C1 [Example 13-149, 4-(5-fluoro-1H-indazol-4-yl)-7,7-dimethyl-2-(2-(2-propenoyl)-2,6-diazaspiro[3.4]octan-6-yl)-7,8-dihydro-5H-pyrano[4,3-b]pyridine-3-carbonitrile]
5.03	5.92	6.83		C=CC(=O)N1CC2(CCN(c3nc4c(c(-c5c(C)cnc6[nH]ncc56)c3C#N)CCC(C)(C)C4)C2)C1 [Example 13-151, 7,7-dimethyl-4-(5-methyl-1H-pyrazolo[3,4-b]pyridin-4-yl)-2-(2-(2-propenoyl)-2,6-diazaspiro[3.4]octan-6-yl)-5,6,7,8-tetrahydro-3-quinolinecarbonitrile]
5.04	5.71	6.10		C=CC(=O)N1CC2(CCN(c3nc4c(c(-c5cccc(C)c5Cl)c3C#N)COC(C)(C)C4)C2)C1 [Example 13-152, 4-(2-chloro-3-methylphenyl)-7,7-dimethyl-2-(2-(2-propenoyl)-2,6-diazaspiro[3.4]octan-6-yl)-7,8-dihydro-5H-pyrano[4,3-b]pyridine-3-carbonitrile]
4.79	6.45	6.26		C=CC(=O)N1CC2(CCN(c3nc4c(c(-c5c(N)cccc5F)c3C#N)COC(C)(C)C4)C2)C1 [Example 13-157, 4-(2-amino-6-fluorophenyl)-7,7-dimethyl-2-(2-(2-propenoyl)-2,6-diazaspiro[3.4]octan-6-yl)-7,8-dihydro-5H-pyrano[4,3-b]pyridine-3-carbonitrile]
